Test results from paper PMC2680961, “Homologous desensitization of signalling by the alpha (α) isoform of the human thromboxane A2 receptor: A specific role for nitric oxide signalling” (Biochimica et Biophysica Acta, 2007).

What was measured:
TP^Δ328 = target: T1, TP^Δ328 (Homo sapiens, UniProt P21731); assay: Intracellular calcium mobilization, HEK.TP^Δ328 cells; type: cell-based; conditions: for Δ[Ca2+]i, U46619-induced: HEK.TP^Δ328
T1 construct: expressed in transfected cells
T1 sequence (P21731 1-328): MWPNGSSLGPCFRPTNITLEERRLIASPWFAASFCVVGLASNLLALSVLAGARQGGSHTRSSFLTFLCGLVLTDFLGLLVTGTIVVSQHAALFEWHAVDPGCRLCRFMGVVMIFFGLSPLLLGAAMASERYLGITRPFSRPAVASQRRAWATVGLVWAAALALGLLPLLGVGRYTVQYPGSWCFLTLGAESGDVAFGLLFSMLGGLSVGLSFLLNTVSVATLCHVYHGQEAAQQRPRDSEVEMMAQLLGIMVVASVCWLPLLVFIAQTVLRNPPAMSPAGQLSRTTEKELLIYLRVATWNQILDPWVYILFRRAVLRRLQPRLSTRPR
Protocol: Measurement of intracellular calcium mobilization ([Ca^2+]i) in FURA2/AM preloaded HEK 293 cell lines (2 × 10^6 cells/dish), each transiently co-transfected with pADVA (10 μg), and pCMV:Gαq (25 μg), was carried out as previously described. To investigate the effect of GRK2/βARK1 on TP-mediated [Ca^2+]i mobilization, HEK.TPα or HEK.TPβ cells (2 × 10^6 cells/dish) were co-transfected with pADVA (10 μg), pCMV:Gαq (25 μg) along with pRK5:βARK1^495–689 (25 μg), encoding a dominant negative form of GRK2/βARK1[39]. Approximately 48 h post-transfection, cells were harvested by scraping, washed twice in ice-cold PBS and resuspended in HBSSHB (modified Ca^2+/Mg^2+-free Hank's buffered salt solution, containing […], pH 7.67, 0.1% bovine serum albumin (BSA)) buffer at 10^7 cells/ml and incubated in the dark with 5 μM FURA2/AM for 45 min at 37 °C. Cells were collected by centrifugation (900×g, 5 min), washed once in an equal volume of HBSSHB, and were finally resuspended in HBSSHB buffer at 10^7 cells/ml and kept at room temperature in the dark for 40 min. For each measurement of [Ca^2+]i mobilization, aliquots of cells were diluted to 0.825 × 10^6 cells/ml in HBSSHB, 1 mM CaCl2 and FURA2 fluorescence was recorded (2 ml aliquots of cells) at 37^ °C with gentle stirring with a Perkin Elmer-Cetus LS50-B spectrofluorometer at excitation wavelengths of 340 nm and 380 nm and emission wavelength of 510 nm, respectively.
Cells were stimulated with the TP agonist U46619 (1 μM) and changes in [Ca^2+]i mobilization were monitored as a function of time. To assess agonist-mediated homologous desensitization, cells (0.825 × 10^6 cells/ml; 2 ml per assay) were stimulated with 1 μM U46619 (Primary stimulation) or, as a control, with the vehicle for 4 min; thereafter, cells were collected by centrifugation (900×g, 5 min); were washed twice in 2 ml HBSSHB, 1 mM CaCl2; and finally resuspended in 2 ml HBSSHB,1 mM CaCl2 and were left to recover over various time intervals (ranging from 0 to 60 min); thereafter, cells re-stimulated with 1 μM U46619 (Secondary stimulation) and changes in [Ca^2+]i mobilization were monitored as a function of time. To assess the role of protein kinase (PK) A, PKC or PKG on U46619-mediated desensitization of TPα signalling, cells were pre-incubated with the PKA inhibitor H-89 (10 μM), the PKC inhibitor GF 109203X (50 nM) or the PKG inhibitor KT 5823 (50 nM), for 15 min and respective kinase inhibitors were maintained throughout the primary/secondary U46619-stimulations and during the washes.
The vehicle had no effect on U46619-mediated [Ca^2+]i mobilization. Calibration of the signal was performed in each sample by adding 0.2% Triton X-100 to obtain the maximal fluorescence ratio (Rmax) and then 1 mM EGTA to obtain the minimal fluorescence ratio (Rmin). The ratio of the fluorescence at 340 nm to that at 380 nm is a measure of [Ca^2+]i, which assumes a Kd of 225 nM Ca^2+ for FURA2/AM. The results presented in the figures are representative data from at least three or four independent experiments and are plotted as changes in Ca^2+i mobilized (Δ[Ca^2+]i (nM)) as a function of time (s) upon ligand stimulation. Changes in [Ca^2+]i mobilization were determined by measuring peak rises in [Ca^2+]i mobilized (Δ[Ca^2+]i) and were calculated as mean changes in Δ[Ca^2+]i ± S.E.M. (nM).

TPα^S331,T337,S340A = target: T2, TPα^S331,T337,S340A (Homo sapiens, UniProt P21731, S331A/S340A/T337A); assay: [3H]SQ29,548 radioligand binding, Scatchard analysis, HEK.TPα^S331,T337,S340A
T2 construct: expressed in transfected cells
T2 sequence (P21731 1-343 S331A/T337A/S340A): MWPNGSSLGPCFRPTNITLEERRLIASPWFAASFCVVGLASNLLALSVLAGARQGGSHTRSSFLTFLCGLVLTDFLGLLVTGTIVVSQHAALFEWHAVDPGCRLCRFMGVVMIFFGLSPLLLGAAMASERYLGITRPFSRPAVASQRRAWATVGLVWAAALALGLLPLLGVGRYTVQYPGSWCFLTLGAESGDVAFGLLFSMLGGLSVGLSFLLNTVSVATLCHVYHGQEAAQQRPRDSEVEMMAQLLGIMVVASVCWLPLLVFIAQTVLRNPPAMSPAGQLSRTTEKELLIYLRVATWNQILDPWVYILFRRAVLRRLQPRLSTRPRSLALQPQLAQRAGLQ
Protocol: Cells were harvested by centrifugation at 500×g at 4 °C for 5 min and washed three times with ice-cold Ca^2+/Mg^2+-free phosphate-buffered saline (PBS). TP radioligand binding assays were carried out at 30 °C for 30 min in 100 μl reactions in the presence of 0–40 nM [^3H] […] Protein determinations were carried out using the Bradford assay.
Radioligand binding and Scatchard analysis data were analysed using GraphPad Prisim V4.0 programme (GraphPad Software Inc., San Diego CA, USA). Statistical analyses were carried out using the unpaired Student's t test using the Statworks Analysis Package. p-values ≤ 0.01 indicated statistically significant differences.

CCCCC[C@H](O)/C=C/[C@@H]1[C@@H](C/C=C\CCCC(=O)O)[C@H]2CO[C@@H]1C2 [U46619]
Δ[Ca2+]i, U46619-induced (TP^Δ328; primary stimulation, 1 μM U46619 4 min): 180 ± 5.6 nM | Δ[Ca2+]i, U46619-induced (TP^Δ328; secondary 1 μM U46619 at 15 min): 158 ± 3.8 nM | Δ[Ca2+]i, U46619-induced (TP^Δ328; secondary 1 μM U46619 at 60 min): 178 ± 6.7 nM | secondary U46619 [Ca2+]i response relative to primary response (TP^Δ328; TP^Δ328, restimulation at 15 min): ~80%

O=C(O)CCC/C=C\C[C@@H]1[C@H](CNNC(=O)Nc2ccccc2)[C@H]2CC[C@@H]1O2 [SQ29,548]
Bmax (pmol/mg protein ± S.E.M.) (TPα^S331,T337,S340A): 4.01 ± 0.05 pmol/mg protein
